Measured values as given in article PMC12227560, “Total synthesis of a sorrentanone ester library and evaluation of its antimicrobial potential” (Scientific Reports, 2025).
≈ marks a conversion by molar mass, not a printed value.

Columns and labels:
[1] = test system: human lung fibroblast cell line (MRC-5); experiment: Cytotoxicity evaluation by MTT assay; assay type: cell-based
Description: (§1) 3. Bioactivity and Toxicity Assays
(§2) Antimicrobial assay: According to the standard broth micro-dilution assays, following the Standards of European Committee on Antimicrobial Susceptibility Testing (v 7.3.1: Method for the determination of broth dilution minimum inhibitory concentrations of antifungal agents for yeasts) for Candida spp., and according to the standard broth micro-dilution assays, recommended by the National Committee for Clinical Laboratory Standards (M07-A8) for bacteria MIC values of compounds were determinate. Compounds were dissolved in DMSO at a concentration of 50 mg/mL, and the highest tested concentration was 250 µg/mL. The inoculums were 1x10^5 colony forming units (CFU/mL), for Candida species, and bacteria species, 5x10^5 colony forming units (CFU/mL). The MIC value was recorded as the lowest concentration that inhibited the growth after 24 h at 37 °C. Additionally, 5 µL from each well of 96 well plates was transferred to Luria Agar (LA) plates for bacteria and Sabouraud agar (SAB) plates for Candida spp. and incubated for an additional 24 h at 37 °C, to determine MBC (Minimum bactericidal/fungicidal concentration) values. In Table 1. Are labeled compounds showing a difference in MBC and previously determined MIC values.
Cytotoxicity evaluation: Antiproliferative activity was tested by MTT assay (3-(4,5-dimethylthiazol-2-yl)-2,5-diphenyltetrazoliumbromide) on a human lung fibroblast cell line (MRC-5; ATCC collection). Pre-grown (24 h) cell monolayers (1x10^4 cells per well) in RPMI 1640 medium supplemented with 100 μg/mL streptomycin, 100 U/mL penicillin, and 10% (v/v) FBS (all from Sigma, Munich, Germany) containing the tested compounds at concentrations ranging from 5 to 20 μg/mL were incubated in a humidified atmosphere of 95% air and 5% CO2 at 37 °C for 48 h. The cell viability (extent of MTT reduction) was measured spectrophotometrically at 540 nm using the Epoch 2000 multiplate reader, and the cell survival was expressed as a percentage of the control (untreated cells). Cytotoxicity was expressed as the concentration of the compound inhibiting cell growth by 50% (IC 50). […]

[2] = test system: Enterococcus faecalis; parameters: method as in PMID 37687129, PMID 7622440; details: cited from earlier work
[3] = test system: various Streptococcus and Staphylococcus species; parameters: method as in PMID 37687129, PMID 7622440; details: cited from earlier work
[4] = test system: ergosterol in C. albicans; experiment: Ergosterol biosynthesis assay; assay type: cell-based, Candida albicans; details: 0.5 MIC; Candida cells; UV profile
Protocol: Ergosterol biosynthesis assay: Ergosterol levels were measured according to the published procedure with some minor modifications. 10 Briefly, a sing le C. albicans colony from an overnight Sabouraud dextrose agar plate was used to inoculate 50 ml of Sabouraud dextrose broth containing 0.5 MIC concentrated compounds. Incubation was performed for 18 h at 37 °C on the rotary shaker at 180 rpm. Cells were harvested by centrifugation at 3000 rpm for 5 min and washed once with sterile distilled water. The net wet weight of the cell pellet was determined. Three milliliters of 25% alcoholic potassium hydroxide solution (25 g of KOH and 35 ml of sterile distill ed water, brought to 100 ml with 100% ethanol), was added to each pellet and vortex mixed for 1 min and incubated in an 85 °C water bath for 1 h. Tubes were cooled to room temperature and extraction of sterols was done with the addition of a mixture of 1 ml of sterile distilled water and 3 ml of n-heptane followed by vigorous vortex mixing for 3 min. The heptane layer was used for spectrophotometrically measuring ergosterol concentrations by scanning absorbance between 240 nm and 300 nm using Ultrospec 3300pro 573 (Amer sham Biosciences, Amersham, UK).

[5] = test system: Bacillus subtilis; parameters: method as in PMID 37687129, PMID 7622440; details: cited from earlier work
[6] = test system: C. albicans ATCC10231 biofilm formation; experiment: Anti-biofilm activity assessment (crystal violet); assay type: cell-based, Candida albicans; details: for inhibition of biofilm formation (in words): data not shown
Protocol: Anti-biofilm activity assessment: The effect of compounds on biofilms formation was determined on C. albicans ATCC 10231 strain. Anti -biofilm assays were conducted using a previously reported methodology with small modifica tions.9 The assay was carried out in 96 - well round-bottom polystyrene microtiter plates. Cells wer e harvested from overnight grown cultures, washed twice with sterile phosphate -buffered saline (PBS; Sigma -Aldrich, Munich, Germany), and resuspended in RPMI 1640 medium (Sigma -Aldrich) containing 2% glucose (w/v) at a concentration of 1 × 10^5 CFU/mL. C. albicans suspension was incubated with 0.5 MIC, 1 MIC, and 2 MIC compounds concentration in 200.0 μL final volume per well for 48 h at 37 °C to allow biofilm formation. Biofilm growth was analyzed by crystal violet (CV) staining of adherent cells and the a bsorbance at 590.0 nm was read on a Tecan Infinite 200 Pro multiplate reader (Tecan Group Ltd., Männedorf, Switzerland). […]

[7] = test system: B. subtilis ATCC6633; experiment: Antimicrobial broth micro-dilution assay (MIC); assay type: cell-based; details: Bacillus subtilis; B. subtilis ATCC6633; 24 h at 37 °C; highest tested concentration 250 µg/mL; read-out: Minimum inhibitory concentration (MIC)
Description: as §1
as §2, with “MIC values. […]” for “MIC values.”

[8] = test system: P. aeruginosa ATCC27853; experiment: Antimicrobial broth micro-dilution assay (MIC); assay type: cell-based; details: Pseudomonas aeruginosa; P. aeruginosa ATCC27853; 24 h at 37 °C; highest tested concentration 250 µg/mL; read-out: Minimum inhibitory concentration (MIC)
Description: as §1
as §2, with “MIC values. […]” for “MIC values.”

[9] = test system: S. aureus MRSA; experiment: Antimicrobial broth micro-dilution assay (MIC); assay type: cell-based; details: Staphylococcus aureus; S. aureus MRSA; 24 h at 37 °C; highest tested concentration 250 µg/mL; read-out: Minimum inhibitory concentration (MIC)
Description: as §1
as §2, with “MIC values. […]” for “MIC values.”

[10] = test system: C. albicans ATCC10231; experiment: Antimicrobial broth micro-dilution assay (MIC); assay type: cell-based; details: Candida albicans; C. albicans ATCC10231; 24 h at 37 °C; highest tested concentration 250 µg/mL; read-out: Minimum inhibitory concentration (MIC)
Description: as §1
as §2, with “MIC values. […]” for “MIC values.”

[11] = test system: S. aureus ATCC25923; experiment: Antimicrobial broth micro-dilution assay (MIC); assay type: cell-based; details: Staphylococcus aureus; S. aureus ATCC25923; 24 h at 37 °C; highest tested concentration 250 µg/mL; read-out: Minimum inhibitory concentration (MIC)
Description: as §1
as §2, with “MIC values. […]” for “MIC values.”

[12] = test system: E. coli NCTC9001; experiment: Antimicrobial broth micro-dilution assay (MIC); assay type: cell-based; details: Escherichia coli; E. coli NCTC9001; 24 h at 37 °C; highest tested concentration 250 µg/mL; read-out: Minimum inhibitory concentration (MIC)
Description: as §1
as §2, with “MIC values. […]” for “MIC values.”

[13] = test system: C. albicans ATCC 10231 hyphae formation; experiment: Filamentation test on Candida (solid spider medium); assay type: cell-based, Candida albicans; details: for relative activity in inhibition of filament formation (in words): compared with 36 and 41, sub-inhibitory concentrations
Protocol: Filamentation test on Candida: Using solid composition, the effect of sorrentano ne […]
albicans cells from an overnight culture grown in Sabouraud dextrose broth medium at 37 °C with or without compounds were centrifuged for 10 minutes at maximum speed, and the pellet was washed several times with sterile PBS (phosphate -buffered saline). After it, the pellet was resuspended in 200 µL PBS, and 2 µL of cell suspension was poured over solid composition and incubated at 37 °C for 120 h. Morphological changes of C. albicans ATCC

[14] = test system: two S. aureus strains and B. subtilis ATCC6633; experiment: Antimicrobial assay, Gram-positive bacteria; assay type: cell-based; details: from MIC values
Description: as §1
as §2, with “MIC values. […]” for “MIC values.”

| Compound | in vitro toxicity ranking (in words) ([1]; MRC-5 cells) | selectivity index (SI) ([1]; cytotoxicity versus antibiotic activity, calculation not described) | IC50 [2] [µg/mL] | IC50 [3] [µg/mL] | reduction of total amount of ergosterol (in words) [4] | IC50 [5] [µg/mL] | inhibition of biofilm formation (in words) [6] | inhibition of biofilm formation ([6]; sub-inhibitory concentration (0.5 times MIC), 48 h) | MIC [7] [µg/mL] | MIC [8] [µg/mL] | MIC [9] [µg/mL] | MIC [10] [µg/mL] | MIC [11] [µg/mL] | MIC [12] [µg/mL] | filamentation (in words) ([13]; 0.5 times MIC, 120 h, C. albicans ATCC10231) | relative activity in inhibition of filament formation (in words) [13] | improvement of antibacterial activity compared to sorrentanone (7) [14] |
| --- | --- | --- | --- | --- | --- | --- | --- | --- | --- | --- | --- | --- | --- | --- | --- | --- | --- |
| C/C=C/C=C/C(=O)C1=C(C)C(=O)C(O)=C(C)C1=O [compound 7, sorrentanone] | highest toxicity | 1.12 | 128 (≈ 520 µM) | 16.0 to 64.0 | most potent in reducing the total amount of ergosterol | 32.0 (≈ 130 µM) | displayed inhibition of biofilm formation | 60–77% | 62.5 (≈ 254 µM) | > 250 | 31.2 (≈ 127 µM) | 125 (≈ 508 µM) | 62.5 (≈ 254 µM) | > 250 | already show filamentation after 120 h | less active | – |
| C=CCCCOC(=O)C1=C(C)C(=O)C(O)=C(C)C1=O [compound 39] | – | – | – | – | most potent in reducing the total amount of ergosterol | – | displayed inhibition of biofilm formation | – | 15.6 (≈ 59 µM) | > 250 | 62.5 (≈ 236 µM) | 62.5 (≈ 236 µM) | 62.5 (≈ 236 µM) | > 250 | – | less active | two- to four-fold improved activity |
